Key:
Type in all cases: cell-based, budding yeast (Saccharomyces cerevisiae)
H3K4me1 and H3K4me2 = assay: Western blot of H3K4me1 and H3K4me2 in yeast cells treated with glucose; conditions: WT cells, different glucose concentrations, 0.5 hr
Procedure: To examine the effect of glucose on histone modifications, we grew yeast cells in 2% glucose-containing medium (YPD) until log phase. Cells were collected and then grown in the medium containing different concentrations of glucose for 0.5 hr.
(§1) To examine the effect of glucose on histone modifications, yeast cells were grown in 2% glucose-containing YPD (Yeast Extract Peptone Dextrose) medium until OD600 of 0.7–1.0. Cells were then collected, washed and resuspended in YP medium for 3 hr followed by treatment with different concentrations of glucose for 0.5 hr. For 1NM-PP1 (MCE, HY-13804) treatment, cells were grown in 2% YPD until OD600 of 0.7–1.0. Cells were then treated with 25 μM 1NM-PP1 for 0.5 hr. For FBP and pyruvate treatment, cells were pre-treated with Zymolase (Mpbio, 08320921) to increase the permeability. In brief, cells were grown in YPD medium until OD600 of 0.7–1.0, centrifuged and resuspended in 1 ml SB buffer (100 mM Sorbitol, 20 mM Tris pH 7.4). 10 μl Zymolase was then added and incubated at 30 °C for 15 min. The spheroplasts were washed and cultured in YPD medium containing different concentrations of FBP and pyruvate for 3 hr.
Cells were grown in 5 ml YPD or selective medium until OD600 of 0.7–1.0. […] The protein bands were visualized using the ECL Chemiluminescence Detection Kit (Bio-Rad, 170–5061) and quantified with Image J software (v.1.8.0).

histone modifications = assay: Effect of glucose on histone modifications in WT and ubp8∆ ubp10∆ mutant (Western blot); conditions: for relative histone modification level (Figure S1c): 0.5 hr
Source text: To identify the signaling pathway that mediates glucose-induced H3K4me3, we first examined the effect of glucose on histone modifications that regulate Set1-catalyzed H3K4me3, including H2BK123 monoubiquitination (H2Bub) and H3R2 asymmetric dimethylation (H3R2me2a)[30]–[32]. […] We then determine whether glucose increases H3K4me3 by inducing H2Bub. As there is no H3K4me3 in the deletion mutants of RAD6 and BRE1, which catalyze H2Bub[30],[31], it is impossible to determine the effect of glucose on H3K4me3 in rad6Δ and bre1Δ mutants. We thus examined the effect of glucose on H3K4me3 in the deletion mutant of UBP8 and UBP10, which encode H2B ubiquitin proteases[33],[34]. […] We also examined the effect of glucose on the activity of Set1-containing complex (COMPASS).
as §1
(§2) Cells were grown in 5 ml YPD or selective medium until OD600 of 0.7–1.0. Cells were harvested and lysed in alkaline lysis buffer (2 M NaOH, 8% 2-mercaptoethanol). After centrifugation, the protein pellet was resuspended in 150 μl 2×SDS-sample buffer. Protein samples were separated by 8–15% SDS-PAGE and transferred to PVDF membrane. The blots were probed with primary antibodies followed by incubation with horseradish peroxidase-labelled IgG secondary antibodies. The protein bands were visualized using the ECL Chemiluminescence Detection Kit (Bio-Rad, 170–5061) and quantified with Image J software (v.1.8.0).
Supplementary Fi g . 1 Glu cose induces H3K4me 3 via the Ras-cAMP-PKA(T p k 2) pathway. […]
Cells were th en tr eat ed with YP medium supplement ed with differen t concentrations of glucos e for 0.5 hr. C ells were h ar vested an d the ex tract ed histones w er e anal yz ed by Western blots with indicat ed ant ibodies. To d et ect H2B monoubiquitination, H2B-F LAG strain w as used and d et ect ed with anti -F LAG ant ibody. Th e upper bands ar e monoubiquitinat ed H2B-F LAG. c E ff e c t of gl ucose on histone modifications in WT and ubp8∆ ubp10∆ mutant. WT and ubp8∆ ubp10∆ mut ant w er e gro wn in YPD medium unti l OD600 of […]
For Supplem ent ar y Fi g. 1b, e-g, i-k, d at a r ep res ent means ± SEM; n=3 i ndependent ex perim ents. For Supplem entar y Fi g. 1c, d ata represent means ± SEM; n=4 independent ex periments. Tw o -sided t-tests were used for statistical analysis.

H3K14ac = assay: Western blot of H3K14ac (glucose, mutants)
Procedure: as §1
as §2, with “The blots were probed with primary antibodies followed by incubation with horseradish peroxidase-labelled IgG secondary antibodies.” left out

Bcy1 = assay: Dissociation of Tpk1, Tpk2, Tpk3 from Bcy1 after glucose, Co-IP; conditions: 2% glucose, 0-30 min
Procedure: Yeast whole cell extract was prepared by vortexing with glass beads and then digested with Micrococcal Nuclease (MNase). Pre-cleared cell lysate was incubated with anti-FLAG M2 agarose for 1 hr at 4 °C. The beads were washed three times with IP washing buffer (40 mM HEPES-KOH, pH7.5, 0.1% NP-40, 10% glycerol, 1 mM PMSF, 350 mM NaCl, 2 μg/ml leupeptin, 1 μg/ml pepstatin A) and boiled in SDS-sample buffer for 5 min. Supernatants from the boiled beads were subjected to SDS-PAGE and Western blots.
Supplementary Fi g . 11 Analysis of PKA subunits subcellular localization, expression and Bcy1 dissociation kinetics. a Subcellul ar localiz ation of Tpk1, Tpk2 and Tp k3. Cells (Tpk1-FLAG, Tpk2- FLAG, Tpk3- F LA G) wer e grown in YP+2% glucos e medium. Th e localization of Tpk1, Tpk2 and Tp k3 was detect ed with ant i-F LAG antibod y. […] Bc y1 was immunoprecipitated from cells (Tpk1- FLAG/Bcy1- M yc, Tpk2- FLAG/Bcy1-M yc, Tpk3- FLAG/Bcy1- M yc) with anti-M yc antibody.
For Supplem ent ar y Fi g. 11 b, dat a r ep res ent m ean s ± SEM; n=3 independent ex perim ents. Tw o -sid ed t-t ests were us ed for statistical […]
(1 picture or pasted object on this page, not shown here)

## OC[C@H]1OC(O)[C@H](O)[C@@H](O)[C@@H]1O (stereo partly drawn) [glucose]
H3K4me1 and H3K4me2
  H3K4me1 and H3K4me2 level: had no effect on H3K4me1 and H3K4me2
Histone modifications; WT, 0.5% glucose, relative to WT 0.05% = 1, replicate 1
  relative histone modification level (Figure S1c): 1.436
Histone modifications; WT, 0.5% glucose, relative to WT 0.05% = 1, replicate 2
  relative histone modification level (Figure S1c): 1.642
Histone modifications; WT, 0.5% glucose, relative to WT 0.05% = 1, replicate 3
  relative histone modification level (Figure S1c): 1.498
Histone modifications; WT, 0.5% glucose, relative to WT 0.05% = 1, replicate 4
  relative histone modification level (Figure S1c): 1.3798
Histone modifications; WT, 2% glucose, relative to WT 0.05% = 1, replicate 1
  relative histone modification level (Figure S1c): 1.805
Histone modifications; WT, 2% glucose, relative to WT 0.05% = 1, replicate 2
  relative histone modification level (Figure S1c): 2.101
Histone modifications; WT, 2% glucose, relative to WT 0.05% = 1, replicate 3
  relative histone modification level (Figure S1c): 2.2062
Histone modifications; WT, 2% glucose, relative to WT 0.05% = 1, replicate 4
  relative histone modification level (Figure S1c): 1.619
Histone modifications; WT, 4% glucose, relative to WT 0.05% = 1, replicate 1
  relative histone modification level (Figure S1c): 1.732
Histone modifications; WT, 4% glucose, relative to WT 0.05% = 1, replicate 2
  relative histone modification level (Figure S1c): 2.2477
Histone modifications; WT, 4% glucose, relative to WT 0.05% = 1, replicate 3
  relative histone modification level (Figure S1c): 2.452
Histone modifications; WT, 4% glucose, relative to WT 0.05% = 1, replicate 4
  relative histone modification level (Figure S1c): 2.7285
Histone modifications; ubp8Δ ubp10Δ, glucose 0.5 hr, Western blot
  H3K4me3 level in ubp8Δ ubp10Δ mutant: H3K4me3 was still increased by glucose
Histone modifications; ubp8Δubp10Δ, 0.05% glucose, relative to WT 0.05% = 1, replicate 1
  relative histone modification level (Figure S1c): 1.962
Histone modifications; ubp8Δubp10Δ, 0.05% glucose, relative to WT 0.05% = 1, replicate 2
  relative histone modification level (Figure S1c): 2.0252
Histone modifications; ubp8Δubp10Δ, 0.05% glucose, relative to WT 0.05% = 1, replicate 3
  relative histone modification level (Figure S1c): 1.753
Histone modifications; ubp8Δubp10Δ, 0.05% glucose, relative to WT 0.05% = 1, replicate 4
  relative histone modification level (Figure S1c): 1.8754
Histone modifications; ubp8Δubp10Δ, 0.5% glucose, relative to WT 0.05% = 1, replicate 1
  relative histone modification level (Figure S1c): 2.076
Histone modifications; ubp8Δubp10Δ, 0.5% glucose, relative to WT 0.05% = 1, replicate 2
  relative histone modification level (Figure S1c): 2.387
Histone modifications; ubp8Δubp10Δ, 0.5% glucose, relative to WT 0.05% = 1, replicate 3
  relative histone modification level (Figure S1c): 2.436
Histone modifications; ubp8Δubp10Δ, 0.5% glucose, relative to WT 0.05% = 1, replicate 4
  relative histone modification level (Figure S1c): 1.826
Histone modifications; ubp8Δubp10Δ, 2% glucose, relative to WT 0.05% = 1, replicate 1
  relative histone modification level (Figure S1c): 2.343
Histone modifications; ubp8Δubp10Δ, 2% glucose, relative to WT 0.05% = 1, replicate 2
  relative histone modification level (Figure S1c): 2.512
Histone modifications; ubp8Δubp10Δ, 2% glucose, relative to WT 0.05% = 1, replicate 3
  relative histone modification level (Figure S1c): 2.749
Histone modifications; ubp8Δubp10Δ, 2% glucose, relative to WT 0.05% = 1, replicate 4
  relative histone modification level (Figure S1c): 2.579
Histone modifications; ubp8Δubp10Δ, 4% glucose, relative to WT 0.05% = 1, replicate 1
  relative histone modification level (Figure S1c): 3.366
Histone modifications; ubp8Δubp10Δ, 4% glucose, relative to WT 0.05% = 1, replicate 2
  relative histone modification level (Figure S1c): 3.228
Histone modifications; ubp8Δubp10Δ, 4% glucose, relative to WT 0.05% = 1, replicate 3
  relative histone modification level (Figure S1c): 2.75
Histone modifications; ubp8Δubp10Δ, 4% glucose, relative to WT 0.05% = 1, replicate 4
  relative histone modification level (Figure S1c): 2.722
H3K14ac; WT cells, glucose 0.5 hr
  H3K14ac level: induced H3K14ac
H3K14ac; glucose
  H3K14ac level, WT versus Jhd2-S321A, S340A and tpk2Δ: increased in response to glucose in WT but not in Jhd2-S321A, S340A and tpk2Δ mutants
Bcy1
  dissociation of Tpk2 from Bcy1 compared with Tpk1 and Tpk3: Tpk2 dissociated with Bcy1 with a faster kinetics than Tpk1 and Tpk3
